In publication PMC8945599, “VEGFA, B, C: Implications of the C-Terminal Sequence Variations for the Interaction with Neuropilins” (Biomolecules, 2022):
Where no end group is shown, it is not given here.

What was measured:
[1] = biological target: T1, NRP1-b1 (b1 domain of Neuropilin-1) (Homo sapiens, UniProt O14786); experiment: Surface plasmon resonance, peptide binding to immobilised NRP1-b1; details: SPR, Biacore T200, protein immobilised on CM5 chip (1000 RU), peptide 64 µM to 0.125 µM, 20 mM Tris pH 7.9, 50 mM NaCl
T1 construct: 6-His-tag with TEV protease cleavage site (N); made in house; host or cells: Rosetta-gami2(DE3)pLysS E. coli
T1 sequence (O14786 275-424 limits assumed): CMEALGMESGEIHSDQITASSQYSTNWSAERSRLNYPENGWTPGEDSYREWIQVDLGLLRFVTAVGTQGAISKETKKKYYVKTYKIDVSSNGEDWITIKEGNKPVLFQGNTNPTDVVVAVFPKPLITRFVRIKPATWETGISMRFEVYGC
From the text: (§1) Proteins were expressed and purified as previously described. NRP1-b1 and NRP2-b1 were expressed in Rosetta-gami2(DE3)pLysS E.coli cells that were transformed with a pET-15b vector containing NRP1-b1 and NRP2-b1 sequences with an N-terminal 6-His-tag and a TEV protease cleavage site. After the cells were harvested by centrifugation and lysed by sonication, the proteins were purified from the filtered cell extract. Purification protocol, as described in Tsai et al. (2016), included a combination of nickel ion-affinity chromatography, size exclusion, and a final ion exchange chromatography step.
(§2) SPR was performed using the Biacore T200 Enhanced Sensitivity model (GE, Healthcare, UK). Protein was immobilised on a CM5 chip, following the manufacturer’s instructions until it reached 1000 response units (RU). SPR was run with a range of peptide concentrations from 64 µM to 0.125 µM, in a buffer of 20 mM Tris pH 7.9, 50 mM NaCl. Biacore T200 evaluation software was used for data analysis.

[2] = biological target: T2, NRP2-b1 (b1 domain of Neuropilin-2) (Homo sapiens, UniProt O60462); experiment: Surface plasmon resonance, peptide binding to immobilised NRP2-b1; details: SPR, Biacore T200, protein immobilised on CM5 chip (1000 RU), peptide 64 µM to 0.125 µM, 20 mM Tris pH 7.9, 50 mM NaCl
T2 construct: 6-His-tag with TEV protease cleavage site (N); made in house; host or cells: Rosetta-gami2(DE3)pLysS E. coli
T2 sequence (O60462 277-427 limits assumed): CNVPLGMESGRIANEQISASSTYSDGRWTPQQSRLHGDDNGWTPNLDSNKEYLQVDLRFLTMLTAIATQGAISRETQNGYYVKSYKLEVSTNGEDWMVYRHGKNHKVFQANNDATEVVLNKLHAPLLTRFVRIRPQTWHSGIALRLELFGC
From the text: as §1, §2

[3] = biological target: T3, NRP1-b1 (Homo sapiens, UniProt O14786); experiment: Thermostability shift assay, NRP1-b1; assay type: binding; details: 5 µM protein, 1 mM ligand, 10X SYPRO Orange, LightCycler 480 II; average of four measurements
T3 construct: 6-His-tag with TEV protease cleavage site (N); made in house; host or cells: Rosetta-gami2(DE3)pLysS E. coli
T3 sequence (O14786 275-424 limits assumed): T1 sequence (O14786 275-424 limits assumed)
Procedure: Thermostability assays were performed on the LightCycler 480 II (Roche) with a final concentration of 5 µM protein, 1 mM ligand and 10X of SYPRO Orange, in DMSO (Thermo Fisher). Negative and positive control experiments were performed using the protein with buffer alone or the ligand without protein and the protein with a strongly binding ligand EG01377, respectively. Experiments were carried out in duplicates on two separate days for two different batches of protein preparations and the values in the table represent the averages from the four measurements.

Row | Substance | Kd [1] | Kd [2] | shift in Tm (ΔTm) of NRP1-b1 [3]
1 | Ac-AAAAR [Con, reference compound] | 33.1 µM | 92.2 µM | 3.0 ± 0.2 °C
2 | Ac-DKPRR [A165] | 7.87 µM | 30.9 µM | 3.5 ± 0.2 °C
3 | Ac-RKLRR [B167] | 4.12 µM | 13 µM | 
4 | Ac-RPQPR [B186] | 10 µM | 24.8 µM | 3.6 ± 0.2 °C
5 | Ac-SIIRR [C] | 33.2 µM | 27.1 µM | 2.0 ± 0.3 °C
